Reference: patent US20250197864A1, “LNCRNA TRANSCRIPTS IN MELANOMAGENESIS” (The Regents of the University of California, priority 2021, published 2025)

Test system: gene expression in D04 melanoma cells
Experiment: RNA-Seq differential expression analysis (DESeq2)
Format: cell-based, human
Method: Total RNA was isolated using the RNeasy mini Kit (QIAGEN) following the manufacturer's protocol. Quality check for extracted RNA was done using 2100 Bioanalyzer (Agilent Technologies, USA) or Tapestation System (Agilent Technologies, USA). […] For samples used for identification of MAPK-responsive lncRNAs, paired-end, 101-bp sequencing was performed by Centrillion Genomic Services (Centrillion Biosciences, USA) on an Illumina HiSeq 2000. For DE gene analysis of ASO-transfected D04 samples, paired-end, 2×150-bp sequencing was performed by Genewiz (USA) on a Illumina HiSeq.
Sequence reads were aligned to the human genome (hg19) using TopHat (Version 2.0.11).
Differential expression (DE) analysis was done using DESeq2. Differentially expressed genes were defined by more than 1.5-fold changes (log 2 >0.58 or <−0.58) in expression with FDR<0.05. GO term analysis was done using DAVID Functional Annotation Clustering analysis.
To examine the biomolecular changes upon TRASH-inhibition in melanoma, D04 cells were treated with TRASH-ASOs (SEQ ID NO:15) and Control-ASOs and RNA was extracted and used for RNA-Seq. […] These GO terms consisted of genes encoding growth factors, tyrosine kinases, G protein coupled receptor subunits, and collagen subunits. Scatter plot diagram showing differential gene expression after TRASH-ASO treatment compared to Control-ASO treatment. (cut-off for significance was adjusted p-value <0.05). Data was obtained from RNA-Seq of D04 melanoma cells, treatment period was three days. (FIG. 5c)

GACTGGAGATAATTAA (gapmer, pattern not given here) [SEQ ID NO: 15, GapmeR ASO targeting AC004540.4 (TRASH), exon region of both isoforms; used for in vitro experiments]
log2FoldChange AC010327.3 (ENSG00000267577, up-regulated list): 1.04 | log2FoldChange CARD8-AS1 (ENSG00000268001, up-regulated list): 0.7573 | log2FoldChange AC005261.3 (ENSG00000268713, up-regulated list): 0.7391 | log2FoldChange AL513477.1 (ENSG00000269896, up-regulated list): 1.066 | log2FoldChange AL606834.1 (ENSG00000269906, up-regulated list): 0.6043 | log2FoldChange ZNF559-ZNF177 (ENSG00000270011, up-regulated list): 0.8965 | log2FoldChange AC112220.2 (ENSG00000271020, up-regulated list): 0.8814 | log2FoldChange AC112220.4 (ENSG00000271643, up-regulated list): 0.8013 | log2FoldChange AC004890.3 (ENSG00000271664, up-regulated list): 0.9879 | log2FoldChange AL365181.3 (ENSG00000272405, up-regulated list): 1.112 | log2FoldChange AL365203.2 (ENSG00000273038, up-regulated list): 0.6423 | log2FoldChange AC037198.1 (ENSG00000276107, up-regulated list): 0.6896 | log2FoldChange AC245041.2 (ENSG00000276850, up-regulated list): 1.06 | log2FoldChange ENSG00000279184 (Gene.name NA) (ENSG00000279184, up-regulated list): 0.592 | log2FoldChange AC005261.5 (ENSG00000279541, up-regulated list): 0.6302 | log2FoldChange AC104581.4 (ENSG00000280046, up-regulated list): 0.8564 | log2FoldChange UCKL1-AS1 (ENSG00000280213, up-regulated list): 0.6201 | log2FoldChange LINC01173 (ENSG00000280744, up-regulated list): 0.9254 | log2FoldChange AC139493.2 (ENSG00000283235, up-regulated list): 0.8882 | log2FoldChange (EPHA3 (ENSG00000044524)): −0.647 | log2FoldChange (ETS2 (ENSG00000157557)): 1.279 | log2FoldChange (EVI2A (ENSG00000126860)): 1.514 | log2FoldChange (EXOC3L2 (ENSG00000283632)): −0.6947 | log2FoldChange (FAM129A (ENSG00000135842)): −0.6591 | log2FoldChange (FAM172BP (ENSG00000175841)): 2.273 | log2FoldChange (FAM180A (ENSG00000189320)): 2.047 | log2FoldChange (FAM198B-AS1 (ENSG00000248429)): −0.6307 | log2FoldChange (FBXO2 (ENSG00000116661)): −0.638 | log2FoldChange (FBXO9 (ENSG00000112146)): −0.5825 | log2FoldChange (FBXO40 (ENSG00000163833)): 1.589 | log2FoldChange (FGF1 (ENSG00000113578)): −0.5817 | log2FoldChange (FHDC1 (ENSG00000137460)): −0.7072 | log2FoldChange (FOSB (ENSG00000125740)): 2.191 | log2FoldChange (FRK (ENSG00000111816)): −0.6911 | log2FoldChange (FRRS1 (ENSG00000156869)): −0.5906 | log2FoldChange (FYN (ENSG00000010810)): −0.6273 | log2FoldChange (GABRA3 (ENSG00000011677)): −0.5841 | log2FoldChange (GAPDHP33 (ENSG00000240244)): 1.514 | log2FoldChange (GAREM1 (ENSG00000141441)): −0.6261 | log2FoldChange (GAS1 (ENSG00000180447)): −0.6542 | log2FoldChange (GAS7 (ENSG00000007237)): −0.5864 | log2FoldChange (GGT5 (ENSG00000099998)): −0.6741 | log2FoldChange (GNG2 (ENSG00000186469)): −0.6003 | log2FoldChange (GNGT2 (ENSG00000167083)): 1.241 | log2FoldChange (GPR162 (ENSG00000250510)): −0.5935 | log2FoldChange (GPRIN3 (ENSG00000185477)): −0.66 | log2FoldChange (GSG1 (ENSG00000111305)): 2.332 | log2FoldChange (H2BFWT (ENSG00000123569)): 2.336 | log2FoldChange (HDAC2-AS2 (ENSG00000228624)): 1.256 | log2FoldChange (HDAC4 (ENSG00000068024)): −0.5923 | log2FoldChange (HEY1 (ENSG00000164683)): −0.6645 | log2FoldChange (HHIPL2 (ENSG00000143512)): −0.6841 | log2FoldChange (HID1 (ENSG00000167861)): 1.325 | log2FoldChange (HLA-DMA (ENSG00000204257)): −0.582 | log2FoldChange (HLA-DMB (ENSG00000242574)): −0.6646 | log2FoldChange (HLA-DPB1 (ENSG00000223865)): −0.696 | log2FoldChange (HLA-DRA (ENSG00000204287)): −0.641 | log2FoldChange (HLA-V (ENSG00000181126)): 1.398 | log2FoldChange (HS6ST2 (ENSG00000171004)): −0.588 | log2FoldChange (HSD3B1 (ENSG00000203857)): −0.6356 | log2FoldChange (HSPA2 (ENSG00000126803)): −0.6741 | log2FoldChange (IFI27 (ENSG00000165949)): −0.6194 | log2FoldChange (IFI27L1 (ENSG00000165948)): −0.5945 | log2FoldChange (IGFBP5 (ENSG00000115461)): −0.631 | log2FoldChange (IGSF11 (ENSG00000144847)): −0.5994 | log2FoldChange (IL24 (ENSG00000162892)): 2.412 | log2FoldChange (IMMP2L (ENSG00000184903)): −0.6662 | log2FoldChange (ITGB2 (ENSG00000160255)): 1.646 | log2FoldChange (KCNK1 (ENSG00000135750)): 4.668 | log2FoldChange (KCNQ5 (ENSG00000185760)): −0.6919 | log2FoldChange (KIAA0319L (ENSG00000142687)): −0.5992 | log2FoldChange (KIF1A (ENSG00000130294)): 6.604 | log2FoldChange (KIRREL1 (ENSG00000183853)): −0.6846 | log2FoldChange (KISS1 (ENSG00000170498)): 1.679 | log2FoldChange (KITLG (ENSG00000049130)): −0.5925 | log2FoldChange (KLK2 (ENSG00000167751)): 2.321 | log2FoldChange (KRT15 (ENSG00000171346)): 1.605 | log2FoldChange (KRT34 (ENSG00000131737)): 3.32 | log2FoldChange (KRT73-AS1 (ENSG00000257495)): 2.888 | log2FoldChange (KRT75 (ENSG00000170454)): 1.915 | log2FoldChange (LBH (ENSG00000213626)): −0.6972 | log2FoldChange (LCK (ENSG00000182866)): 1.307 | log2FoldChange (LCN2 (ENSG00000148346)): 1.647 | log2FoldChange (LDHD (ENSG00000166816)): 1.623 | log2FoldChange (LDLR (ENSG00000130164)): −0.588 | log2FoldChange (LIFR (ENSG00000113594)): −0.5862 | log2FoldChange (LINC00520 (ENSG00000258791)): 2.38
